Where a SMILES comes first, the peptide text is derived from it. Bridges are numbered along the chain shown (N, C = ends). [ ]: non-standard residue; d: D form. NMeF = CN[C@@H](Cc1ccccc1)C(=O)O; pGlu = O=C1CC[C@@H](C(=O)O)N1; hCys = N[C@@H](CCS)C(=O)O; Nle = CCCC[C@H](N)C(=O)O
What was measured:
hAPJ = target: T1, hAPJ (Homo sapiens, UniProt P35414); assay: hAPJ Calcium Flux Assay; assay type: cell-based; details: Chem-5 APJ stable cells, calcium flux stimulation; read-out: hAPJ Ca2+ Flux EC50
T1 sequence (P35414 1-380): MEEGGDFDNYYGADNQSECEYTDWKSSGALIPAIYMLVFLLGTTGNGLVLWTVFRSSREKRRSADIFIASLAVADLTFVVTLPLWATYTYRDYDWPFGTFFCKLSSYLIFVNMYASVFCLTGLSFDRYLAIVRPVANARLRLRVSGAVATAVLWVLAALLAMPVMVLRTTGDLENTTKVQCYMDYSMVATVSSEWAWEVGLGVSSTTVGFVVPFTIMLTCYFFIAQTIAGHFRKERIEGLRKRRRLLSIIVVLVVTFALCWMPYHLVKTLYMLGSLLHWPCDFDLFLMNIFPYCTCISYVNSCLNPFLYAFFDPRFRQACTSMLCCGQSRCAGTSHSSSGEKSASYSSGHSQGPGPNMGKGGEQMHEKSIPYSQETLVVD
Procedure: Chem-5 APJ stable cells (Millipore # HTS068C) were plated in 384-well format with 10,000 cells/well in 25 ul growth media, then grown 24 hours in a 37° C. tissue culture incubator. One hour before the assay, 25 ul/well FLIPR Calcium 4 dye (Molecular Devices R8142) with 2.5 mM probenecid was added, and cells were incubated one hour in a 37° C. tissue culture incubator. Peptides were solubilized in HBSS, HEPES & 0.1% BSA buffer, and serially-diluted 10-fold, from 50 uM to 5 pM, in triplicate. FLIPR Tetra was used to add peptide to the cells with dye (1:5, for final peptide concentrations ranging from 10 uM to 1 pM). FLIPR dye inside the cells emitted fluorescence after binding to calcium, while fluorescence from outside the cells was masked. […] Readings were done for 3 minutes total, beginning 10 seconds before the peptide addition. Maximum-minimum values were calculated and plotted for each peptide concentration, and GraphPad prism software was used to calculate EC50 values at the curve inflection points, for calcium flux stimulation by peptides.

[1] = Surrogate Activity-Based Plasma Stability Assay; assay type: in vitro ADME; details: rat
Source text: Surrogate Activity-Based Plasma Stability Assay:
2) Calculate slope of value above and […]

[2] = Plasma Stability Assay (LC-MS); assay type: in vitro ADME; details: male, Sprague-Dawley, heparinized rat plasma, 37° C., read-out: Plasma stability t½
Procedure: Plasma Stability Assay: Materials: Working solution: 1 mg/mL test article is prepared in Milli-Q water Extraction solution: Methanol:Acetonitrile:Water (1:1:1) with 0.1% Formic Acid and 400 ng/mL Glyburide. Plasma: Male Sprague-Dawley rat plasma (with sodium heparin), purchased from Bioreclamation LLC (Liverpool, N.Y.). Test article was prepared in one of the following biological matrices: heparinized rat plasma, heparinized rat whole blood or lung homogenate. […] Lung homogenate samples were prepared by diluting lung homogenate to 1 mg/ml protein concentration with phosphate buffered saline (PBS), followed by addition of 5 uL Working solution to 995 uL diluted lung homogenate. The samples were incubated at 37° C. with gentle shaking (65˜75 rpm) in a water bath incubator. […] Afterwards, a pipetting device (Tecan Temo) was used to transfer the supernatants to another plate and add 50 uL of water to all samples. The plate was vortexed prior to LC-MS analysis. […] The samples are incubated at 37° C. with gentle shaking (65˜75 rpm) in a water bath incubator. […] The reaction mixture is incubated at 37° C. for 1 hour. After completion of reaction, protein precipitation is performed using 300 uL of acetonitrile. […] Afterwards, a pipetting device (Tecan Temo) is used to transfer 125 uL supernatants to another plate and adds 50 uL of water to all samples. […]

Row | Structure (SMILES) | EC50 (hAPJ) [nM] | half-life [1] [min] | half-life [2] [min] | Surrogate Activity based Plasma stability t½ [1] [min]
1 | CCCC[C@H](NC(=O)[C@@H]1CCCN1C(=O)CNC(=O)[C@H](CCCCN)NC(=O)[C@@H]1CCSSC[C@H](NC(C)=O)C(=O)N[C@@H](CCCNC(=N)N)C(=O)N2CCC[C@H]2C(=O)N[C@@H](CCCNC(=N)N)C(=O)N[C@@H](CC(C)C)C(=O)N[C@@H](CO)C(=O)N1)C(=O)N1CCC[C@H]1C(=O)N[C@@H](Cc1ccccc1)C(=O)O [Example 6, Ac-C*-R-P-R-L-S-hC*-K-G-P-Nle-P-F-OH] (Ac-CRPRLS[hCys]KGP[Nle]PF-OH; disulfide 1-7) | 21.4 | 5 | – | –
2 | CCCC[C@H](NC(=O)[C@@H]1CCCN1C(=O)CNC(=O)[C@H](CCCCN)NC(=O)[C@@H]1CSSC[C@@H](NC(C)=O)C(=O)N[C@@H](CCCNC(=N)N)C(=O)N2CCC[C@H]2C(=O)N[C@@H](CCCNC(=N)N)C(=O)N[C@@H](CC(C)C)C(=O)N[C@@H](CO)C(=O)N1)C(=O)N1CCC[C@H]1C(=O)N[C@@H](Cc1ccccc1)C(=O)O [Example 12, Ac-c*-R-P-R-L-S-C*-K-G-P-Nle-P-F-OH] (Ac-[dC]RPRLSCKGP[Nle]PF-OH; disulfide 1-7) | 21.4 | 10 | – | –
3 | CCCC[C@H](NC(=O)[C@@H]1CCCN1C(=O)CNC(=O)[C@H](CCCCN)NC(=O)[C@@H]1CSSC[C@H](NC(=O)[C@@H]2CCCN2C(=O)[C@H](CCCNC(=N)N)NC(=O)[C@@H]2CCC(=O)N2)C(=O)N[C@@H](CC(C)C)C(=O)N[C@@H](CO)C(=O)N1)C(=O)N1CCC[C@H]1C(=O)N(C)[C@@H](Cc1ccccc1)C(=O)O [Example 29, pE-R-P-C*-L-S-C*-K-G-P-Nle-P-(N-Me)F-OH] ([pGlu]RPCLSCKGP[Nle]P[NMeF]-OH; disulfide 4-7) | 4.2 | 705 | – | –
4 | CCCC[C@@H](NC(=O)[C@@H]1CCCN1C(=O)CNC(=O)[C@H](CCCCN)NC(=O)[C@@H]1CSSC[C@H](NC(=O)[C@@H]2CCCN2C(=O)[C@H](CCCNC(=N)N)NC(=O)[C@@H]2CCC(=O)N2)C(=O)N[C@@H](CC(C)C)C(=O)N[C@@H](CO)C(=O)N1)C(=O)NCCc1ccccc1 [Example 32, pE-R-P-C*-L-S-C*-K-G-P-(D-Nle)-NH(Phenethyl)] | – | > 1000 | 377 | >1000

More lines, in order of falling EC50 (hAPJ), values ahead:

Row | EC50 (hAPJ) [nM] | half-life [1] [min] | Structure (SMILES) | half-life [2] [min] | Surrogate Activity based Plasma stability t½ [1] [min]
5 | 193 | 17.7 | CCCC[C@H](NC(=O)[C@@H]1CCCN1C(=O)CNC(=O)[C@H](CCCCN)NC(=O)[C@H]1CSSC[C@H](NC(C)=O)C(=O)N[C@@H](CCCNC(=N)N)C(=O)N2CCC[C@H]2C(=O)N[C@@H](CCCNC(=N)N)C(=O)N[C@@H](CC(C)C)C(=O)N[C@@H](CO)C(=O)N1)C(=O)N1CCC[C@H]1C(=O)N[C@@H](Cc1ccccc1)C(=O)O [Example 15, Ac-C*-R-P-R-L-S-c*-K-G-P-Nle-P-F-OH] (Ac-CRPRLS[dC]KGP[Nle]PF-OH; disulfide 1-7) | – | –
6 | 4.2 | 34 | CC(C)C[C@@H]1NC(=O)[C@@H](NC(=O)[C@@H]2CCCN2C(=O)[C@H](CCCNC(=N)N)NC(=O)[C@@H]2CCC(=O)N2)CCSSC[C@@H](C(=O)N[C@@H](CCCCN)C(=O)NCC(=O)N2CCC[C@H]2C(=O)N[C@H](Cc2ccccc2)C(=O)N[C@H](C)C(=O)N[C@H](Cc2ccccc2)C(=O)O)NC(=O)[C@H](CO)NC1=O [Example 36, pE-R-P-hC*-L-S-C*-K-G-P-f-a-f-OH] ([pGlu]RP[hCys]LSCKGP[dF][dA][dF]-OH; disulfide 4-7) | – | –

Source: patent US9683019B2, “Cyclic polypeptides for the treatment of heart failure” (priority 2013, dated 2017)
